{"source": "patent US12606534B2", "about": "“Method for the treatment of keratin materials using acid, ester or amide C-glycoside derivatives, and cosmetic composition containing same” (L'OREAL, priority 2016, dated 2026)", "tested_on": "normal human melanocytes", "assay": "Depigmenting activity (reduction of melanin production) in normal human melanocytes in vitro", "assay_type": "cell-based", "details": "compound at 100 μM, 72 hours incubation, optical density (amount of melanin)", "experimental": "The depigmenting activity (reduction of melanin production) of compounds of formula (I) was measured by assay in normal human melanocytes in vitro as follows.\nFirst, normal human melanocytes are cultured and distributed in a multiple-well plate.\nAfter 24 hours, the culture medium was replaced with a medium containing the compounds of formula (I) to be evaluated. The cells were incubated for 72 hours before measuring the final optical density, which measures the amount of melanin produced by the melanocytes. The measurement was calibrated and the compounds were tested at 100 μM.\nVarious test runs were performed and the results are collated in the following tables.", "data": [{"smiles": "CC(=O)OC[C@H]1OC(CC(=O)O)[C@H](OC(C)=O)[C@@H](OC(C)=O)[C@@H]1OC(C)=O", "note": "(stereo partly drawn) [Compound 1]", "values": [{"measurement": "% depigmentation at 100 μM, Run 3", "setting": "Run 3", "result": 24, "unit": "%"}]}, {"smiles": "O=C(O)C[C@@H]1O[C@H](CO)[C@@H](O)[C@H](O)[C@H]1O", "note": "[Compound 2]", "values": [{"measurement": "% depigmentation at 100 μM, Run 2", "setting": "Run 2", "result": 29, "unit": "%"}]}, {"smiles": "C[C@@H]1OC(CC(=O)N(C)C)[C@H](O)[C@H](O)[C@H]1O", "note": "(stereo partly drawn) [Compound 4]", "values": [{"measurement": "% depigmentation at 100 μM, Run 1", "setting": "Run 1", "result": 15, "unit": "%"}]}]}
